In patent US20210292340A1, “CELL NECROSIS INHIBITOR, PREPARATION METHOD THEREFOR AND USE THEREOF” (SHANGHAI INSTITUTE OF ORGANIC CHEMISTRY, CHINESE ACADEMY OF …, priority 2018, published 2021):
Read-outs that look alike come from different tables or passages of the source.

Tested on: Jurkat (FADD−/−) cells
Assay: Inhibition of TNF-induced programmed Jurkat (FADD−/−) cell necrosis (Cell Titer-Glo)
Assay type: cell-based, human
Settings: 20 h, TNF 10 ng/mL, intracellular ATP level, read-out: Cellular IC50 (M) Jurkat (FADD−/−)
Method: Two replicate wells were set for each concentration of each compound.
Jurkat (FADD^−/−) cells (human-derived peripheral blood leukemia T cell line, with FADD gene knocked out) were cultured in vitro. After growing to logarithmic growth phase, the cells were harvested, and centrifuged at 1000 rpm for 5 min. The supernatant was discarded, and the cells were resuspended in fresh medium and adjusted to a cell density of 5×10^5/mL. The cell suspension was added to the culture plate containing the drug (40 μL per well). In the treatment groups, 10 μL of TNF (tumor necrosis factor, final concentration 10 ng/mL) diluted with the cell culture medium was added to each well, and incubated for 20 h in a cell incubator (37° C., 5% CO2). Subsequently, 50 μL of Cell Titer-Glo solution was added to each well and incubated at room temperature for 10 min. Then, the luminescence was detected on BioTek plate reader to measure the intracellular ATP level. The effect of the test compounds in inhibiting TNF-induced cell necrosis was calculated from the full-activity well and background well (with the untreated DMSO control well as 100% cell viability), and the half inhibitory concentration (IC50) of the compound was calculated by Graphpad Prism statistical software.

SMILES	IC50 (Homo sapiens, Jurkat) [M]	IC50 [M]
CN1C(=O)[C@@H](NC(=O)c2cc(Oc3ccccc3)ccn2)COc2cc3ncnc(O)c3cc21 [RIP1-188]	1.93e-07	
CN1C(=O)[C@@H](NC(=O)c2cc(Oc3c(F)cccc3F)ccn2)COc2ccc3ncccc3c21 [RIP1-198]	4.57e-09	
CN1C(=O)[C@@H](NC(=O)c2n[nH]c(Cc3c(F)cccc3F)n2)COc2cc3[nH]nnc3cc21 [RIP1-166]	2.98e-07	
CN1C(=O)[C@@H](NC(=O)c2ccc(Nc3ccccc3)cn2)COc2ccc3ncccc3c21 [RIP1-201]	> 2e-05	
CN1C(=O)[C@@H](NC(=O)c2nnc(Oc3ccccc3)[nH]2)COc2cc3ncoc3cc21 [RIP1-211]	2.72e-07	
CN1C(=O)[C@@H](NC(=O)c2cn(Cc3ccccc3)cn2)COc2cc3[nH]ccc3cc21 [RIP1-114]	8.46e-10	
Cc1ccc(Cc2cc(C(=O)N[C@H]3CSc4cc5c(ccn5C)cc4N(C)C3=O)n(C)n2)cc1 [RIP1-057]	> 2e-06	
CN1C(=O)[C@@H](NC(=O)c2cn(Cc3ccccc3)nn2)CSc2cc3c(ccn3Cc3ccccc3)cc21 [RIP1-084]	> 2e-06	
CN1C(=O)[C@@H](NC(=O)c2n[nH]c(Cc3ccccc3)n2)CSc2cc3[nH]ncc3cc21 [RIP1-013]	5.3e-10	
CN1C(=O)[C@@H](NC(=O)c2cc(Oc3ccccc3)ccn2)COc2ccc3ncccc3c21 [RIP1-179]	6.7e-10	
CN1C(=O)[C@@H](NC(=O)c2cn(Cc3ccccc3)nn2)CSc2ccc3ncccc3c21 [RIP1-095]	9.85e-09	
CN1C(=O)[C@@H](NC(=O)c2nnn(Cc3ccccc3)n2)CSc2cc3c(ccn3C)cc21 [RIP1-058]	2.53e-10	
CN1C(=O)[C@@H](NC(=O)c2ncn(Cc3ccccc3)n2)CSc2ccc3ncccc3c21 [RIP1-093]	1.15e-09	
CN1C(=O)[C@@H](NC(=O)c2cn(Cc3ccccc3)cn2)COc2cc3[nH]ncc3cc21 [RIP1-022]	5.66e-10	
CN1C(=O)[C@@H](NC(=O)c2nnc(Cc3ccccc3)[nH]2)COc2cc3[nH]ccc3cc21 [RIP1-112]	1.22e-09	
CN1C(=O)[C@@H](NC(=O)c2cc(Oc3ccccc3F)ccn2)COc2ccc3ncccc3c21 [RIP1-203]	2.33e-09	
CN1C(=O)[C@@H](NC(=O)c2cnc(Cc3ccccc3)[nH]2)CSc2cc3[nH]ccc3cc21 [RIP1-047]	2.15e-08	
CN1C(=O)[C@@H](NC(=O)c2cncc(Oc3ccccc3)c2)COc2ccc3ncccc3c21 [RIP1-193]	2.95e-07	
CN1C(=O)[C@@H](NC(=O)c2cn(Cc3ccccc3)nn2)COc2cc3[nH]c(C(F)(F)F)nc3cc21 [RIP1-078]	3.11e-08	
CN1C(=O)[C@@H](NC(=O)c2cn(Cc3ccccc3)cn2)CSc2cc3[nH]ncc3cc21 [RIP1-016]	2.3e-10	
CN1C(=O)[C@@H](NC(=O)c2n[nH]c(Cc3ccccc3)n2)COc2ccccc21 [GSK2982772, reference compound]	9.7e-10	
CN1C(=O)[C@@H](NC(=O)c2nc(Cc3ccccc3)n(C)n2)COc2cc3ncoc3cc21 [RIP1-220]	> 2e-05	
CN1C(=O)[C@@H](NC(=O)c2cn(Cc3ccccc3)cn2)CSc2cc3[nH]ccc3cc21 [RIP1-006]	1.25e-09	
CN1C(=O)[C@@H](NC(=O)c2n[nH]c(Cc3c(F)cccc3F)n2)COc2ccc3ncccc3c21 [RIP1-168]	1.1e-08	
CN1C(=O)[C@@H](NC(=O)c2n[nH]c(Cc3c(F)cccc3F)n2)COc2cc3ncoc3cc21 [RIP1-183]	6.15e-09	
CN1C(=O)[C@@H](NC(=O)c2ncn(Cc3ccccc3)n2)CSc2cc3[nH]nc(Cl)c3cc21 [RIP1-026]	2.8e-10	
CN1C(=O)[C@@H](NC(=O)c2cc(Cc3ccccc3)on2)CSc2cc3[nH]ccc3cc21 [RIP1-003]	6.91e-10	
CN1C(=O)[C@@H](NC(=O)c2cn(Cc3ccccc3)cn2)CSc2cc3[nH]nc(Cl)c3cc21 [RIP1-028]	7e-11	

SMILES	IC50 (Homo sapiens, Jurkat) [M]	IC50 [M]
CN1C(=O)[C@@H](NC(=O)c2cnn(Cc3ccccc3)c2)CSc2cc3[nH]ncc3cc21 [RIP1-014]	2.6e-08	
CN1C(=O)[C@@H](NC(=O)c2n[nH]c(Cc3ccc(F)cc3)n2)COc2cc3ncoc3cc21 [RIP1-185]	2.72e-09	
CN1C(=O)[C@@H](NC(=O)c2cnc(Cc3ccccc3)o2)CSc2cc3c(ccn3Cc3ccccc3)cc21 [RIP1-087]	> 2e-06	
CN1C(=O)[C@@H](NC(=O)c2cc(Oc3ccccc3)ccn2)COc2cc3nccnc3cc21 [RIP1-177]	2.03e-09	
CN1C(=O)[C@@H](NC(=O)c2nnc(Cc3ccccc3)[nH]2)COc2cc3[nH]ncc3cc21 [RIP1-023]	2.54e-09	
Cc1nc2cc3c(cc2[nH]1)OC[C@H](NC(=O)c1cccc(Cc2ccccc2)c1)C(=O)N3C [RIP1-066]	6.7e-07	
CN1C(=O)[C@@H](NC(=O)c2n[nH]c(Cc3ccccc3F)n2)COc2ccc3ncccc3c21 [RIP1-170]	1.74e-09	3e-09
COc1ncnc2cc3c(cc12)N(C)C(=O)[C@@H](NC(=O)c1n[nH]c(Cc2cc(F)cc(F)c2)n1)CO3 [RIP1-176]	6.9e-09	
CN1C(=O)[C@@H](NC(=O)c2n[nH]c(Cc3ccccc3)n2)COc2ccc3cccnc3c21 [RIP1-148]	1.07e-08	
CN1C(=O)[C@@H](NC(=O)c2ncn(Cc3ccccc3)n2)CSc2cc3occc3cc21 [RIP1-037]	1.29e-10	
CN1C(=O)[C@@H](NC(=O)c2n[nH]c(Cc3c(F)cc(F)cc3F)n2)COc2ccc3ncccc3c21 [RIP1-169]	1.13e-07	
CN1C(=O)[C@@H](NC(=O)c2ncn(Cc3ccccc3)n2)CSc2cc3c(ccn3Cc3ccccc3)cc21 [RIP1-086]	> 2e-06	
CN1C(=O)[C@@H](NC(=O)c2cc(Cc3ccccc3)on2)CSc2cc3c(ccn3Cc3ccccc3)cc21 [RIP1-085]	> 2e-06	
COc1ncnc2cc3c(cc12)N(C)C(=O)[C@@H](NC(=O)c1n[nH]c(Cc2ccc(F)cc2)n1)CO3 [RIP1-158]	8e-09	
CN1C(=O)[C@@H](NC(=O)c2n[nH]c(Cc3ccccc3)n2)COc2cc3ncoc3cc21 [RIP1-182]	8.16e-10	
CN1C(=O)[C@@H](NC(=O)c2cccc(Oc3ccccc3)n2)COc2ccc3ncccc3c21 [RIP1-194]	7.28e-06	
Cc1nc2cc3c(cc2[nH]1)OC[C@H](NC(=O)c1nnc(Cc2ccccc2)o1)C(=O)N3C [RIP1-070]	2.15e-06	
COc1ncnc2cc3c(cc12)N(C)C(=O)[C@@H](NC(=O)c1n[nH]c(Cc2c(F)cccc2F)n1)CO3 [RIP1-156]	2.8e-08	
COc1ncnc2cc3c(cc12)N(C)C(=O)[C@@H](NC(=O)c1n[nH]c(Cc2ccccc2F)n1)CO3 [RIP1-160]	2.2e-09	
CN1C(=O)[C@@H](NC(=O)c2cn(Cc3ccccc3)nn2)COc2cc3nccnc3cc21 [RIP1-130]	5.43e-08	
CN1C(=O)[C@@H](NC(=O)c2nnc(Cc3ccccc3)[nH]2)CSc2ccc3ncccc3c21 [RIP1-092]	1.05e-09	
CN1C(=O)[C@H](NC(=O)c2cnn(Cc3ccccc3)c2)COc2cc3c(ccn3C)cc21 [RIP1-082]	> 2e-06	
CN1C(=O)[C@@H](NC(=O)c2nnc(Cc3ccccc3)[nH]2)COc2cc3[nH]nnc3cc21 [RIP1-143]	2.06e-07	
Cc1nc2cc3c(cc2[nH]1)OC[C@H](NC(=O)c1coc(Cc2ccccc2)n1)C(=O)N3C [RIP1-065]	> 2e-06	
CN1C(=O)[C@@H](NC(=O)c2ncn(Cc3ccccc3)n2)COc2cc3nccnc3cc21 [RIP1-128]	4.83e-07	
CN1C(=O)[C@@H](NC(=O)c2cn(Cc3ccccc3)cn2)CSc2cc3occc3cc21 [RIP1-036]	1.8e-10	
CN1C(=O)[C@@H](NC(=O)c2nnn(Cc3ccccc3)n2)COc2cc3[nH]c(=O)[nH]c3cc21 [RIP1-075]	4.73e-10	
